Source: patent publication US20250313563A1, “GLYCOGEN SYNTHASE KINASE 3 INHIBITORS AND USES THEREOF” (The Broad Institute, Inc., priority 2022, published 2025)
Where two headings read alike, the source gives them in different places.

Tests used:
[1] = molecular target: GSK3b (GST-full length GSK3b) (Homo sapiens (Human), UniProt P49841); experiment: GSK3b TR-FRET kinase assay; type: biochemical
Outline: (§1)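 Compound was preincubated 30 min with 1 nM GST-GSK3 enzyme. Reaction ran 100 min at ambient temperature in Tris pH 7.5/MgCl2 with 200 nM biotinylated pS645-glycogen synthase 631-650 peptide and ATP (4 μM GSK3α, 2 μM GSK3b, or 1 mM). The EDTA-stopped reaction was read by TR-FRET (Tb-anti-pSer641/streptavidin-d2), and IC50s were fitted.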

[2] = molecular target: GSK3α (GST-full length GSK3α) (Homo sapiens (Human), UniProt P49840); experiment: GSK3α TR-FRET kinase assay; type: biochemical
Sequence of GSK3α (GST-full length GSK3α) (P49840 whole entry): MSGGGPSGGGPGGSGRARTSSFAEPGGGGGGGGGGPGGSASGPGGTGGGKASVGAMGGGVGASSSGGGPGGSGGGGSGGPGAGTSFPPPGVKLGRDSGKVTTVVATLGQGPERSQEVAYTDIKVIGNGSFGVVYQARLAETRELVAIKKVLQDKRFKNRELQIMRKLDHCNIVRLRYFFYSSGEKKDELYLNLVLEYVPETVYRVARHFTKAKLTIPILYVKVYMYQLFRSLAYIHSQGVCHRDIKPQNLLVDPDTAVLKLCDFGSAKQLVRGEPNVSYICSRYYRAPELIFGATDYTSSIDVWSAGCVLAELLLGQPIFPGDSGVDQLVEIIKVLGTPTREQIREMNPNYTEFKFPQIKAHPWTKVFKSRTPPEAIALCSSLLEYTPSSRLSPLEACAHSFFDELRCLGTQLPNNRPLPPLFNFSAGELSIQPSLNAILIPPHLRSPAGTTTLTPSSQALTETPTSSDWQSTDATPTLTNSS
Outline: as §1

[3] = test system: MDR1-MDCK cell monolayers; experiment: MDR1/MDCK assay (blood-brain barrier penetration potential); type: in vitro ADME; settings: 5 μM, pH 7.4, 120 minutes
Description: The MDR1/MDCK assay is run at Absorption Systems. This assay is used to determine the blood-brain barrier (BBB) penetration potential of a test compound using MDR1-MDCK cell monolayers. Catalog number EA203.
• Test compound at 5 μM in HBSSg with maximum DMSO concentration not greater than 1%.
• Confluent monolayers of MDR1-MDCK cells, 7 to 11 days old.
• Receiver well with 1% BSA in modified Hanks buffer (HBSSg) • Apical and basolateral side at pH 7.4 • Dose two monolayers in each direction (N=2) • Dose apical side for (A to B) assessment • Dose basolateral side for (B to A) assessment • Sample both apical and basolateral sides at 120 minutes • Determine the concentrations of test compound using a generic LC-MS/MS method with a minimum 4 point calibration curve.
• The quality of the cell monolayer batch is verified using control compounds before monolayers are released for use • The quality of each monolayer used in the assay is verified by a TEER measurement and by calculating the Papp for a control compound.

[4] = read-out: GSK3-B (TR-FRET 1 mM ATP), GMean, IC50, 1 mM ATP, geometric mean
[5] = read-out: GSK3-A (TR-FRET 1 mM ATP), GMean, IC50, 1 mM ATP, geometric mean
[6] = 1 nM GSK3b, 2 μM ATP, 30 minute preincubation, Table 16, read-out: GSK3-B TR-FRET BIOCHEMICAL (TR-FRET), IC50
[7] = 1 nM GSK3α, 4 μM ATP, 30 minute preincubation, Table 16, read-out: GSK3-A TR-FRET BIOCHEMICAL (TR-FRET), IC50
[8] = 1 nM GSK3b, 2 μM ATP, 30 minute preincubation, Table 16, read-out: GSK3-B TR-FRET BIOCHEMICAL (TR-FRET)
[9] = 1 nM GSK3α, 4 μM ATP, 30 minute preincubation, Table 16, read-out: GSK3-A TR-FRET BIOCHEMICAL (TR-FRET)
[10] = GSK3-B (TR-FRET 1 mM ATP), GMean, IC50, 1 mM ATP, geometric mean
[11] = GSK3-A (TR-FRET 1 mM ATP), GMean, IC50, 1 mM ATP, geometric mean

Sequence of GSK3b (GST-full length GSK3b) (P49841 whole entry): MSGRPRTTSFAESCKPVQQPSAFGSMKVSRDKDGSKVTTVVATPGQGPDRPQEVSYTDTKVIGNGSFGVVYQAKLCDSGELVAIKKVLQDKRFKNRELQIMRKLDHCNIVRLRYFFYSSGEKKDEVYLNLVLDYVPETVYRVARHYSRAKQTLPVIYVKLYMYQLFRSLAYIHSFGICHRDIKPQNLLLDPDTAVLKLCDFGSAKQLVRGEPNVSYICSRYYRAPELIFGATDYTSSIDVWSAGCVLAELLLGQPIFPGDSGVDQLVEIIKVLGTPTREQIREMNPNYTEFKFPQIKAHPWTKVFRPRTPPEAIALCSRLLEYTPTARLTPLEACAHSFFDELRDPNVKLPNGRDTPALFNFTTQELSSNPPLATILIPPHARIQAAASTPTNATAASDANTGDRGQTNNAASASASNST

Row | SMILES | IC50 [1, 6] [nM] | IC50 [2, 7] [nM] | IC50 [1, 8] [nM] | IC50 [2, 9] [nM] | further results
1 | CN(C)S(=O)(=O)c1cccc(C2(C)C3=C(CC(C)(C)CC3=O)Nc3n[nH]c(CC(C)(C)C)c32)c1 (stereo not shown) [Compound 126012] | – | – | – | – | IC50 [1, 4]: 100 to 1000 nM; IC50 [2, 5]: 1000 to 5000 nM; MDCK permeability (MDR1-MDCK); Mean; Papp Ratio (B − A/A − B) (efflux ratio) [3]: 120; MDCK permeability (MDR1-MDCK); Mean; Papp (A − B) ([3]; A to B): 0.47 10^−6 cm/s; MDCK permeability (MDR1-MDCK); Mean; Papp (B − A) ([3]; B to A): 56.2 10^−6 cm/s
2 | CCc1cc(-c2cccc([C@@]3(CC)C4=C(CC(C)(C)NC4=O)Nc4n[nH]cc43)c2)n(C)n1 [Compound 952561] | 100 to 1000 | 100 to 1000 | – | – | –
3 | CC[C@]1(c2cccc(-c3c(F)cncc3OC)c2)C2=C(CC(C)(C)C2=O)Nc2n[nH]cc21 [Compound 952562] | > 5000 | 1000 to 5000 | – | – | –
4 | CC[C@]1(c2cccc(-c3cc(C)nc4c3cnn4C)c2)C2=C(CC(C)(C)NC2=O)Nc2n[nH]cc21 [Compound 952563] | > 5000 | 1000 to 5000 | – | – | –
5 | CC[C@@]1(c2cccc(-c3c(F)cncc3OC)c2)C2=C(CC(C)(C)C2=O)Nc2n[nH]cc21 [Compound 952564] | ≤ 100 | ≤ 100 | – | – | IC50 [1, 4]: 1000 to 5000 nM; IC50 [2, 5]: 100 to 1000 nM
6 | CC[C@]1(c2cccc(-c3cnn4ccncc34)c2)C2=C(CC(C)(C)NC2=O)Nc2n[nH]cc21 [Compound 952565] | 100 to 1000 | ≤ 100 | – | – | IC50 [1, 4]: > 5000 nM; IC50 [2, 5]: 1000 to 5000 nM
7 | CCC1(c2cccc(-c3cnn(-c4ccccn4)c3)c2)C2=C(CC(C)(C)NC2=O)Nc2n[nH]cc21 (stereo not shown) [Compound 952566] | 1000 to 5000 | 100 to 1000 | – | – | IC50 [1, 4]: > 5000 nM; IC50 [2, 5]: > 5000 nM
8 | CC[C@@]1(c2cccc(C(F)(F)F)c2)C2=C(CCN(c3ccsc3)C2=O)Nc2n[nH]cc21 [Compound 952630] | 100 to 1000 | ≤ 100 | – | – | –
9 | CC[C@]1(c2cccc(C(F)(F)F)c2)C2=C(CCN(c3ccsc3)C2=O)Nc2n[nH]cc21 [Compound 952636] | > 5000 | > 5000 | – | – | –
10 | CC[C@]1(c2cccc(C(F)(F)F)c2)C2=C(CCN(c3cscn3)C2=O)Nc2n[nH]cc21 [Compound 952638] | > 5000 | > 5000 | – | – | –
11 | CCC1(c2cccc(-c3ccnc4c3CCCC4)c2)C2=C(CC(C)(C)C2=O)Nc2n[nH]cc21 (stereo not shown) [Compound 952752] | 100 to 1000 | ≤ 100 | – | – | –
12 | CC[C@]1(c2cccc(-c3ccnc(OC)c3Cl)c2)C2=C(CC(C)(C)NC2=O)Nc2n[nH]cc21 [Compound 952754] | 100 to 1000 | ≤ 100 | – | – | –
13 | CC[C@]1(c2cccc(-c3ccncc3C(F)(F)F)c2)C2=C(CC(C)(C)C2=O)Nc2n[nH]cc21 [Compound 952757] | > 5000 | 1000 to 5000 | – | – | –
14 | CC[C@@]1(c2cccc(-c3ccncc3C(F)(F)F)c2)C2=C(CC(C)(C)C2=O)Nc2n[nH]cc21 [Compound 952759] | ≤ 100 | ≤ 100 | – | – | IC50 [1, 4]: 1000 to 5000 nM; IC50 [2, 5]: 100 to 1000 nM
15 | CC[C@]1(c2cccc(-c3c(C)cnc4c(C)cccc34)c2)C2=C(CC(C)(C)NC2=O)Nc2n[nH]cc21 [Compound 952760] | > 5000 | > 5000 | – | – | –
16 | CC[C@]1(c2cccc(-c3ccnc4c(C)cccc34)c2)C2=C(CC(C)(C)NC2=O)Nc2n[nH]cc21 [Compound 952909] | 100 to 1000 | ≤ 100 | – | – | –
17 | CC[C@@]1(c2ccccc2)C2=C(Nc3n[nH]cc31)[C@@H](F)C(C)(C)CC2=O [Compound 957196] | – | – | > 5000 | > 5000 | –
18 | CC[C@@]1(c2ccccc2)C2=C(Nc3n[nH]cc31)[C@H](F)C(C)(C)CC2=O [Compound 957197] | – | – | 1000 to 5000 | 100 to 1000 | IC50 [1, 10]: > 5000 nM; IC50 [2, 11]: > 5000 nM

Row | SMILES | IC50 [1, 6] [nM] | IC50 [2, 7] [nM] | IC50 [1, 8] [nM] | IC50 [2, 9] [nM] | further results
19 | CC[C@]1(c2ccccc2)C2=C(Nc3n[nH]cc31)[C@@H](F)C(C)(C)CC2=O [Compound 957199] | – | – | > 5000 | > 5000 | –
20 | CC[C@]1(c2ccccc2)C2=C(Nc3n[nH]cc31)[C@H](F)C(C)(C)CC2=O [Compound 957200] | – | – | 100 to 1000 | 100 to 1000 | IC50 [1, 10]: > 5000 nM; IC50 [2, 11]: > 5000 nM
21 | CC[C@]1(c2ccccc2)C2=C(CC(C)(C)[C@H](F)C2=O)Nc2n[nH]cc21 [Compound 957403] | – | – | 1000 to 5000 | 100 to 1000 | –
22 | CC[C@]1(c2ccccc2)C2=C(CC(C)(C)[C@@H](F)C2=O)Nc2n[nH]cc21 [Compound 957404] | – | – | > 5000 | > 5000 | –
23 | CC[C@@]1(c2ccccc2)C2=C(CC(C)(C)[C@H](F)C2=O)Nc2n[nH]cc21 [Compound 957405] | – | – | 1000 to 5000 | 100 to 1000 | –
24 | CC[C@@]1(c2ccccc2)C2=C(CC(C)(C)[C@@H](F)C2=O)Nc2n[nH]cc21 [Compound 957406] | – | – | > 5000 | > 5000 | –
25 | CC[C@@]1(c2cccc(C(F)(F)F)c2)C2=C(CC(C)(C)NC2=O)Nc2n[nH]c(F)c21 [Compound 957497] | > 5000 | > 5000 | – | – | –
26 | CCC1(c2cccc(-c3cnn(C)c3)c2)C2=C(Nc3n[nH]cc31)C(F)C(C)(C)CC2=O (stereo not shown) [Compound 957504] | – | – | 1000 to 5000 | 100 to 1000 | IC50 [1, 4]: > 5000 nM
27 | CC[C@@]1(c2cccc(-c3cnn(C)c3)c2)C2=C(Nc3n[nH]cc31)[C@H](F)C(C)(C)CC2=O [Compound 957505] | – | – | 1000 to 5000 | ≤ 100 | IC50 [1, 4]: > 5000 nM; IC50 [2, 5]: 1000 to 5000 nM
28 | CC[C@@]1(c2cccc(-c3ccnn3C)c2)C2=C(Nc3n[nH]cc31)[C@H](F)C(C)(C)CC2=O [Compound 957507] | – | – | ≤ 100 | ≤ 100 | IC50 [1, 4]: 1000 to 5000 nM; IC50 [2, 5]: ≤ 100 nM
29 | CC[C@]1(c2cccc(-c3ccnn3C)c2)C2=C(Nc3n[nH]cc31)[C@H](F)C(C)(C)CC2=O [Compound 957508] | – | – | > 5000 | > 5000 | –
30 | CCC1(c2cccc(-c3ccnn3C)c2)C2=C(Nc3n[nH]cc31)C(F)C(C)(C)CC2=O (stereo not shown) [Compound 957509] | – | – | > 5000 | 100 to 1000 | –
31 | CCC1(c2cccc(-c3cnn(C)c3)c2)C2=C(Nc3n[nH]cc31)C(F)C(C)(C)CC2=O (stereo not shown) [Compound 957510] | – | – | > 5000 | 1000 to 5000 | –
32 | CC[C@]1(c2cccc(C(F)(F)F)c2)C2=C(CC(C)(C)NC2=O)Nc2n[nH]c(F)c21 [Compound 957518] | 100 to 1000 | ≤ 100 | – | – | –
33 | CCC1(c2cccc(-c3ccncc3)c2)C2=C(Nc3n[nH]cc31)C(F)C(C)(C)CC2=O (stereo not shown) [Compound 959341] | – | – | 100 to 1000 | ≤ 100 | IC50 [1, 4]: > 5000 nM; IC50 [2, 5]: 1000 to 5000 nM
34 | CCC1(c2cccc(-c3ccncc3)c2)C2=C(Nc3n[nH]cc31)C(F)C(C)(C)CC2=O (stereo not shown) [Compound 959342] | – | – | > 5000 | 1000 to 5000 | –
35 | CC[C@]1(c2cccc(-c3ccncc3)c2)C2=C(Nc3n[nH]cc31)[C@@H](F)C(C)(C)CC2=O [Compound 959344] | – | – | > 5000 | > 5000 | –
36 | CCC1(c2cccc(-c3cncn3C(C)C)c2)C2=C(Nc3n[nH]cc31)C(F)C(C)(C)CC2=O (stereo not shown) [Compound 963155] | – | – | ≤ 100 | ≤ 100 | –
